Source: patent US20230082430A1 (C4 Therapeutics, Inc., priority 2019, published 2023)

test system: NCIH929.1 cells; assay: Cell viability assay for Table 2 (CellTiter-Glo 2.0, ATP quantification, 96 hr); assay type: cell-based; conditions: 96 h, NCIH929.1 cell viability, 96 hr, top concentration 1 μM, 14 points half log titration; read-out: IC50
Excerpt: Cell Viability Assay for Table 2
CellTiter-Glo® 2.0 Assay was purchased from Promega (Madison, Wis., USA). NCIH929.1 cell line was purchased from ATCC (Manassas, Va., USA). Cell culture flasks and 384-well microplates were acquired from VWR (Radnor, Pa., USA).

SMILES	IC50
N#Cc1ccc(N2CCN(C3(c4ccc(Cc5ccc6c7c(cccc57)C(=O)N6C5CCC(=O)NC5=O)cc4)CC3)CC2)c(F)c1 (stereo not shown) [Compound 262, 4-[4-(1-{4-[1-(2,6-Dioxo-piperidin-3-yl)-2-oxo-1,2-dihydro-benzo[cd]indol-6-ylmethyl]-phenyl}-cyclopropyl)-piperazin-1-yl]-3-fluoro-benzonitrile]	< 1 nM
COC1(CN2CCC(n3cc(Cc4ccc5c6c(cccc46)C(=O)N5C4CCC(=O)NC4=O)cn3)CC2)CCC1 (stereo not shown) [Compound 56, 3-(6-((1-(1-((1-methoxycyclobutyl)methyl)piperidin-4-yl)-1H-pyrazol-4-yl)methyl)-2-oxobenzo[cd]indol-1(2H)-yl)piperidine-2,6-dione]	< 1 nM
CC(C)(F)C(=O)N1CCC(C)(n2cc(Cc3ccc4c5c(cccc35)C(=O)N4C3CCC(=O)NC3=O)cn2)CC1 (stereo not shown) [Compound 96, 3-(6-((1-(1-(2-fluoro-2-methylpropanoyl)-4-methylpiperidin-4-yl)-1H-pyrazol-4-yl)methyl)-2-oxobenzo[cd]indol-1(2H)-yl)piperidine-2,6-dione]	< 1 nM
CC(C)(C)OC(=O)N1CCC(n2cc(Nc3ccc4c5c(cccc35)C(=O)N4C3CCC(=O)NC3=O)cn2)CC1 (stereo not shown) [Compound 248, tert-butyl 4-[4-[[1-(2,6-dioxo-3-piperidyl)-2-oxo-benzo[cd]indol-6-yl]amino]pyrazol-1-yl]piperidine-1-carboxylate]	< 100 nM
O=C1CCC(N2C(=O)c3cccc4c(Cc5ccc(C6(N7CCN(c8ccccc8F)CC7)CC6)cc5)ccc2c34)C(=O)N1 (stereo not shown) [Compound 264, 3-[6-(4-{1-[4-(2-Fluoro-phenyl)-piperazin-1-yl]-cyclopropyl}-benzyl)-2-oxo-2H-benzo[cd]indol-1-yl]-piperidine-2,6-dione]	< 1 nM
CC1(C(=O)N2CCC(n3cc(Nc4ccc5c6c(cccc46)C(=O)N5C4CCC(=O)NC4=O)cn3)CC2)CCC1 (stereo not shown) [Compound 249, 3-[6-[[1-[1-(1-methylcyclobutanecarbonyl)-4-piperidyl]pyrazol-4-yl]amino]-2-oxo-benzo[cd]indol-1-yl]piperidine-2,6-dione]	< 100 nM
CC1(n2cc(Cc3ccc4c5c(cccc35)C(=O)N4C3CCC(=O)NC3=O)cn2)CCN(C(=O)C23CCCC(C2)C3)CC1 (stereo not shown) [Compound 89, 3-(6-((1-(1-(bicyclo[3.1.1]heptane-1-carbonyl)-4-methylpiperidin-4-yl)-1H-pyrazol-4-yl)methyl)-2-oxobenzo[cd]indol-1(2H)-yl)piperidine-2,6-dione]	< 1 nM
CC(C)(C)C(=O)N1CCC(n2cc(Cc3ccc4c5c(cccc35)C(=O)N4C3CCC(=O)NC3=O)cn2)CC1 (stereo not shown) [Compound 44, 3-(2-oxo-6-((1-(1-pivaloylpiperidin-4-yl)-1H-pyrazol-4-yl)methyl)benzo[cd]indol-1(2H)-yl)piperidine-2,6-dione]	< 1 nM
CC(C)(C)OC(=O)N1CCC(n2cc(C(N)c3ccc4c5c(cccc35)C(=O)N4C3CCC(=O)NC3=O)cn2)CC1 (stereo not shown) [Compound 154, tert-butyl 4-(4-(amino(1-(2,6-dioxopiperidin-3-yl)-2-oxo-1,2-dihydrobenzo[cd]indol-6-yl)methyl)-1H-pyrazol-1-yl)piperidine-1-carboxylate]	< 1 nM
CN(C(=O)N1CCC(n2cc(Cc3ccc4c5c(cccc35)C(=O)N4C3CCC(=O)NC3=O)cn2)CC1)C(C)(C)C (stereo not shown) [Compound 132, N-tert-butyl-4-[4-[[1-(2,6-dioxo-3-piperidyl)-2-oxo-benzo[cd]indol-6-yl]methyl]pyrazol-1-yl]-N-methyl-piperidine-1-carboxamide]	< 1 nM
O=C1CCC(N2C(=O)c3cccc4c(Cc5ccc(CN6CCc7ccccc7C6)cc5)ccc2c34)C(=O)N1 (stereo not shown) [Compound 155, 3-[6-[[4-(3,4-dihydro-1H-isoquinolin-2-ylmethyl)phenyl]methyl]-2-oxo-benzo[cd]indol-1-yl]piperidine-2,6-dione]	< 1 nM
CC1(n2cc(Cc3ccc4c5c(cccc35)C(=O)N4C3CCC(=O)NC3=O)cn2)CCN(C(=O)C2CCN(c3ccccn3)CC2)CC1 (stereo not shown) [Compound 272, 3-[6-[[1-[4-methyl-1-[1-(2-pyridyl)piperidine-4-carbonyl]-4-piperidyl]pyrazol-4-yl]methyl]-2-oxo-benzo[cd]indol-1-yl]piperidine-2,6-dione]	< 1 nM
CC1(c2cn(Cc3ccc4c5c(cccc35)C(=O)N4C3CCC(=O)NC3=O)nn2)CCN(C(=O)C2(C(F)(F)F)CC2)CC1 (stereo not shown) [Compound 127, 3-[6-[[4-[4-methyl-1-[1-(trifluoromethyl)cyclopropanecarbonyl]-4-piperidyl]triazol-1-yl]methyl]-2-oxo-benzo[cd]indol-1-yl]piperidine-2,6-dione]	< 1 nM
N#CC1(CN2CCC(n3cc(Cc4ccc5c6c(cccc46)C(=O)N5C4CCC(=O)NC4=O)cn3)CC2)CC1 (stereo not shown) [Compound 199, 1-[[4-[4-[[1-(2,6-dioxo-3-piperidyl)-2-oxo-benzo[cd]indol-6-yl]methyl]pyrazol-1-yl]-1-piperidyl]methyl]cyclopropanecarbonitrile]	< 1 nM
N#Cc1ccc(N2CCN(Cc3ccc(Cc4ccc5c6c(cccc46)C(=O)N5C4CCC(=O)NC4=O)cc3)CC2)c(F)c1 (racemic) [Compound 183, 4-[4-[[4-[[1-(2,6-dioxo-3-piperidyl)-2-oxo-benzo[cd]indol-6-yl]methyl]phenyl]methyl]piperazin-1-yl]-3-fluoro-benzonitrile]	< 1 nM
N#Cc1ccc(N2CCN(Cc3ccn(Cc4ccc5c6c(cccc46)C(=O)N5C4CCC(=O)NC4=O)n3)CC2)c(F)c1 (stereo not shown) [Compound 208, 4-(4-((1-((1-(2,6-dioxopiperidin-3-yl)-2-oxo-1,2-dihydrobenzo[cd]indol-6-yl)methyl)-1-H-pyrazol-3-yl)methyl)piperazin-1-yl)-3-fluorobenzonitrile]	< 1 nM
O=C1CCC(N2C(=O)c3cccc4c(Cc5cnn(C6CCN(C(=O)c7ccccc7)CC6)c5)ccc2c34)C(=O)N1 (stereo not shown) [Compound 47, 3-(6-((1-(1-benzoylpiperidin-4-yl)-1H-pyrazol-4-yl)methyl)-2-oxobenzo[cd]indol-1(2H)-yl)piperidine-2,6-dione]	< 1 nM
CC1(n2cc(Cc3ccc4c5c(cccc35)C(=O)N4C3CCC(=O)NC3=O)cn2)CCCCC1 (stereo not shown) [Compound 198, 3-[6-[[1-(1-methylcyclohexyl)pyrazol-4-yl]methyl]-2-oxo-benzo[cd]indol-1-yl]piperidine-2,6-dione]	< 1 nM
N#Cc1ccc(N2CCN(Cc3ccc(Cc4ccc5c6c(cccc46)C(=O)N5C4CCC(=O)NC4=O)cc3)C(=O)C2)c(F)c1 (stereo not shown) [Compound 172, 4-[4-[[4-[[1-(2,6-dioxo-3-piperidyl)-2-oxo-benzo[cd]indol-6-yl]methyl]phenyl]methyl]-3-oxo-piperazin-1-yl]-3-fluoro-benzonitrile]	< 1 nM
CC(C)(C)C1CCN(Cc2ccc(Cc3ccc4c5c(cccc35)C(=O)N4C3CCC(=O)NC3=O)cc2)CC1 (stereo not shown) [Compound 158, 3-[6-[[4-[(4-tert-butyl-1-piperidyl)methyl]phenyl]methyl]-2-oxo-benzo[cd]indol-1-yl]piperidine-2,6-dione]	< 1 nM
O=C1CCC(N2C(=O)c3cccc4c(Cc5ccc(CN6CCN(c7ccc(F)cc7F)CC6)cc5)ccc2c34)C(=O)N1 (single isomer, unassigned) [Compound 256, 3-(6-(4-((4-(2,4-difluorophenyl)piperazin-1-yl)methyl)benzyl)-2-oxobenzo[cd]indol-1(2H)-yl)piperidine-2,6-dione]	< 1 nM
O=C1CCC(N2C(=O)c3cccc4c(Cc5ccc(CN6CCC7(CCCO7)CC6)cc5)ccc2c34)C(=O)N1 (single isomer, unassigned) [Compound 217, 3-[6-[[4-(1-oxa-8-azaspiro[4.5]decan-8-ylmethyl)phenyl]methyl]-2-oxo-benzo[cd]indol-1-yl]piperidine-2,6-dione]	< 1 nM
O=C1CCC(N2C(=O)c3cccc4c(Cc5cnn(C6CCN(C(=O)C78CCCC(C7)C8)CC6)c5)ccc2c34)C(=O)N1 (stereo not shown) [Compound 50, 3-(6-((1-(1-(bicyclo[3.1.1]heptane-1-carbonyl)piperidin-4-yl)-1H-pyrazol-4-yl)methyl)-2-oxobenzo[cd]indol-1(2H)-yl)piperidine-2,6-dione]	< 1 nM
O=C1CCC(N2C(=O)c3cccc4c(Cc5ccc(CN6CCOCC6=O)cc5)ccc2c34)C(=O)N1 (stereo not shown) [Compound 197, 3-[2-oxo-6-[[4-[(3-oxomorpholin-4-yl)methyl]phenyl]methyl]benzo[cd]indol-1-yl]piperidine-2,6-dione]	< 1 nM
O=C1CCC(N2C(=O)c3cccc4c(Cc5cnn(C6CCN(C7(C8CC8)CC7)CC6)c5)ccc2c34)C(=O)N1 (stereo not shown) [Compound 223, 3-[6-[[1-[1-(1-cyclopropylcyclopropyl)-4-piperidyl]pyrazol-4-yl]methyl]-2-oxo-benzo[cd]indol-1-yl]piperidine-2,6-dione]	< 1 nM
CC(C)(C)OC(=O)N1CCN(Cc2ccc(Cc3ccc4c5c(cccc35)C(=O)N4C3CCC(=O)NC3=O)cc2)CC1 (stereo not shown) [Compound 107, tert-butyl 4-(4-((1-(2,6-dioxopiperidin-3-yl)-2-oxo-1,2-dihydrobenzo[cd]indol-6-yl)methyl)benzyl)piperazine-1-carboxylate]	< 1 nM

same assay, conditions: NCIH929.1 cell viability, 96 hr, top concentration 1 μM, 14 points half log titration; read-out: IC50

SMILES	IC50
CC(C1CCC1)N1CCC(n2cc(Cc3ccc4c5c(cccc35)C(=O)N4C3CCC(=O)NC3=O)cn2)CC1 (single isomer, unassigned) [Compound 281, 3-[6-[[1-[1-[1-cyclobutylethyl]-4-piperidyl]pyrazol-4-yl]methyl]-2-oxo-benzo[cd]indol-1-yl]piperidine-2,6-dione]	< 1 nM
O=C1CCC(N2C(=O)c3cccc4c(Cc5ccc(CN6CCN(c7ccccc7F)CC6)cc5)ccc2c34)C(=O)N1 (single isomer, unassigned) [Compound 189, 3-[6-[[4-[[4-(2-fluorophenyl)piperazin-1-yl]methyl]phenyl]methyl]-2-oxo-benzo[cd]indol-1-yl]piperidine-2,6-dione]	< 1 nM
